Entries after “also recorded” stand apart in the source; their conditions may differ.
How the values were obtained:
[1] = test system: Ts65Dn mice; settings: restoration of norepinephrine level; cited from earlier work
[2] = test system: Ts65Dn mice; settings: restoration of norepinephrine level; cited from earlier work; remark: listed apart in the source
[3] = test system: C57Bl/6J mice; test: Contextual fear conditioning memory retrieval (FIG. 10A, B); type: in vivo; settings: betaxolol 1 mg/kg, atenolol 3 mg/kg s.c.
Procedure: In all experiments xamoterol 3 mg/kg, atenolol 3 mg/kg, and betaxolol 1 mg/kg were injected subcutaneously. […] Results are shown as mean+SEM (ns=not significant, *=p<0.05, and **=p<0.01).

[4] = test system: male Ts65Dn mice; test: T-maze spontaneous alternation; type: in vivo; settings: betaxolol 1 mg/kg s.c. plus xamoterol 3 mg/kg s.c.
From the text: The T-maze had 3 equal arms (30 cm length, 10 cm width, and 20 cm height). The start arm and 2 goal arms had guillotine gates. This test was based on the rodents' preference to experience a new arm of the T-maze instead of a familiar one ([…], 1998). In each trial, the mouse was placed in the start arm. The gate was then opened and the mouse was able to freely explore the arms. As soon as the mouse entered one goal arm, the sliding gate of the other goal arm closed. The mouse eventually returned to the start arm and the next trial was started. In the next trial, the mouse may recognize the previously chosen goal arm and choose to explore a new arm rather than revisit the previously visited arm. This trial was repeated 11 times per day for 3 consecutive days, for a total of 33 trials. The maze was cleaned with 50% ethanol between trials to eliminate odor. Percent of alternation (number of turns in each goal arm) was used for analysis. This protocol has been described before by Belichenko et al. (2009) and is modified from a Deacon and Rawlins (2006) protocol (Deacon and Rawlins, 2006; Belichenko et al., 2009). […] In this part of the study, activity chamber and three cognitive tests, including T-maze spontaneous alternation, contextual fear conditioning (CFC), and novel object recognition were performed. In T-maze spontaneous alternation and contextual fear conditioning, both Ts65Dn and 2N male mice were divided into three treatment groups including normal saline (Vehicle), xamoterol, and betaxolol plus xamoterol groups. In the novel object recognition test, both Ts65Dn and 2N male mice were divided into two treatment groups, normal saline and xamoterol. The T-maze was performed exactly as previously described. […] On the first day (training day), animals were placed in the fear conditioning chamber, and after a 3-minute pre-shock period, they were exposed to 5 shocks (2 s, 0.5 mA,) with inter-trial intervals of 80 seconds and no tone. On the second day, the animals first received xamoterol, xamoterol plus betaxolol, or saline injection, and one hour later, they were placed in the same chamber for 5 minutes. Similar to the previous description of fear conditioning, freezing was defined as the complete lack of motion for a minimum of o.75 second. The Novel Object Recognition task is conducted in an open field arena (40 cm×40 cm). Mice were habituated in the testing room for 1 hour followed by 5 minutes habituation inside the arena without any objects. On 4th day animals were introduced 3 times to arena with 3 identical subjects for 10 minutes with 3 minutes inter trial intervals. On 5th day (24 hours after trainings) one of the objects replaced by a novel one and the time sniffing of each object were used for analysis. For testing the role of β1 adrenergic system, xamoterol and betaxolol (Tocris Bioscience, Ellisville, Mo.) were injected subcutaneously using 10 ml/kg normal saline as vehicle. Xamoterol, (3 mg/kg) was given one hour before testing and betaxolol (1 mg/kg) was given 30 minutes before testing.

[5] = test system: male Ts65Dn mice; test: Contextual fear conditioning; type: in vivo; settings: betaxolol 1 mg/kg s.c. plus xamoterol 3 mg/kg s.c.
Procedure: Contextual and Cued fear conditioning was conducted for evaluation of fear-dependent learning and retrieval in the study. The test was performed using chambers from Coulbourn Instruments (Whitehall, Pa.). On the first day, the animals were placed in a chamber (Context A) for 3 min for baseline recording, followed by 5 tone-shock pairings. The shock (0.5 mA, 2 sec) was delivered following the tone (70 dB, 2 kHz, 20 sec) in each conditional/unconditional stimulus pairing. On the second day a novel chamber (Context B; new room, new olfactory environment, texture of floor, blue plastic inserts for walls, extra source of blue light, and visual cues) was used for cued testing. Three tones without shocks were presented to animals during a 3 min testing period following a 3 min pre-tone period. On the last day of the experiment, the mice were placed in Context A for 5 min without any conditional and unconditional stimulus {modified from the method described by (Saxe et al., 2006)}. Freezing was defined as the complete lack of motion for a minimum of 0.75 second as measured by FreezeFrame software (Actimetrics, Evanston, Ill.). The percent of freezing in each period was reported. For the startle response control test, an acoustic startle reflex apparatus (Med Associates Inc., St. Albans, Vt.) was used. The subjects were acclimated to the animal holder in the startle box for a total of 15 min over 3 consecutive-days prior to the experiment. The animals were exposed to 25 different trials with 10-20 second randomly variable inter-trial intervals. Five different intensities of startle pulses, 0, 90, 100, 110, and 120 dB, were randomly used, and each animal was randomly exposed 5 times to each intensity of the startle pulse. The duration of each startle pulse was 40 ms and the peak amplitude of the startle response in each trial was recorded for analysis. The holding cage on the apparatus was cleaned with 10% alcohol between each animal. […] In this part of the study, activity chamber and three cognitive tests, including T-maze spontaneous alternation, contextual fear conditioning (CFC), and novel object recognition were performed. In T-maze spontaneous alternation and contextual fear conditioning, both Ts65Dn and 2N male mice were divided into three treatment groups including normal saline (Vehicle), xamoterol, and betaxolol plus xamoterol groups. In the novel object recognition test, both Ts65Dn and 2N male mice were divided into two treatment groups, normal saline and xamoterol. The T-maze was performed exactly as previously described. […] On the first day (training day), animals were placed in the fear conditioning chamber, and after a 3-minute pre-shock period, they were exposed to 5 shocks (2 s, 0.5 mA,) with inter-trial intervals of 80 seconds and no tone. On the second day, the animals first received xamoterol, xamoterol plus betaxolol, or saline injection, and one hour later, they were placed in the same chamber for 5 minutes. Similar to the previous description of fear conditioning, freezing was defined as the complete lack of motion for a minimum of o.75 second. The Novel Object Recognition task is conducted in an open field arena (40 cm×40 cm). Mice were habituated in the testing room for 1 hour followed by 5 minutes habituation inside the arena without any objects. On 4th day animals were introduced 3 times to arena with 3 identical subjects for 10 minutes with 3 minutes inter trial intervals. On 5th day (24 hours after trainings) one of the objects replaced by a novel one and the time sniffing of each object were used for analysis. For testing the role of β1 adrenergic system, xamoterol and betaxolol (Tocris Bioscience, Ellisville, Mo.) were injected subcutaneously using 10 ml/kg normal saline as vehicle. Xamoterol, (3 mg/kg) was given one hour before testing and betaxolol (1 mg/kg) was given 30 minutes before testing.

Structure (SMILES)	effect on hippocampal-mediated contextual deficit in fear conditioning [1]	effect on nesting behavior [2]	effect on memory retrieval of contextual fear conditioning [3]	effect of betaxolol on xamoterol's rescue of spontaneous alternation [4]	effect of betaxolol on xamoterol's rescue of contextual fear conditioning [5]
N[C@H](C(=O)O)[C@H](O)c1ccc(O)c(O)c1 [L-DOPS, L-threo-3,4-dihydroxyphenylserine]	restored	restored	–	–	–
CC(C)NCC(O)COc1ccc(CC(N)=O)cc1 (stereo not drawn) [atenolol]	–	–	did not have such an effect	–	–
CC(C)NCC(O)COc1ccc(CCOCC2CC2)cc1 (stereo not drawn) [betaxolol]	–	–	impaired	completely reversed; also recorded: prevented or blocked; also recorded: blocked; also recorded: betaxolol prevents this effect	completely reversed; also recorded: prevents or blocks; also recorded: completely blocked; also recorded: betaxolol prevents this effect

Reference: US9072746B2, “Method for enhancing learning and memory impaired by neurodegenerative disorders and compounds and compositions for effecting the same” (The Board of Trustees of the Leland Stanford Junior …, priority 2010, dated 2015)
